Experimental data from patent US20160024203A1, “METHODS OF PRODUCING ANTIBODIES IN YEAST” (BRISTOL-MYERS SQUIBB COMPANY, priority 2013, published 2016).

Key:
P. pastoris = test: Effects of hydroxyurea on cell growth and antibody productivity in P. pastoris fermentation (Run 01MAY11); format: cell-based, Pichia pastoris; conditions: for Sup Titer (Normalized): anti-IL-6 antibody supernatant titer; for Sup Titer (Normalized) / WB Titer (Normalized): lots T5, T6 and T10 + hydroxyurea 2.6-2.8 g/L; for WCW: lots T5, T6 and T10 + hydroxyurea 2.6-2.8 g/L added 5 hours after feed start, triplicate bioreactors; for WB Titer (Normalized): whole broth titer = supernatant titer*(1-WCW/1000)
Experimental: The glucose and ethanol were measured by YSI 2700 (YSI Incorporated, Yellow Springs, Ohio), O2 and CO2 of the exhaust line were measured by Questor GP Process Mass Spectrometer (ABB Extrel, Pittsburgh, Pa.) and the RQ value was calculated using below Equation [1]. The wet cell weight (WCW) was measured by centrifuging one (1) milliliter (mL) fermentation broth at 13,200 rpm for 10 minutes, weighing pellet, and calculated ratio of pellets weight (g) over volume (mL). The supernatant titer (g/L) was measured by the HPLC method and the whole broth (WB) titer was then calculated by below Equation[2]. Non reduced and reducing SDS-PAGE gels are performed following standard method.
WB_Titer=Supernatant_Titer*(1−WCW/1000)
The treatment cultures were operated the same way plus adding hydroxyurea 5 hours after feed start.

[1] = system: suspended S. cerevisiae cells; conditions: 5.7 g/L hydroxyurea; cited from earlier work

## NC(=O)NO [Hydroxyurea]
P. pastoris; 90 hours run time, three hydroxyurea treatment lots, three control lots 59.8
  average whole broth titer: 75 normalized units
P. pastoris; after peak cell density at 30-40 hours, control lots ~400 g/Kg, FIG. 8
  WCW reached/maintained by hydroxyurea treatment lots: ~450 g/kg
P. pastoris; age 59 h
  Sup Titer (Normalized): 83.9 ± 2.2 Normalized
  WCW: 437 ± 17 g/kg
  WB Titer (Normalized): 47.2 ± 1.8 Normalized
P. pastoris; age 90 h
  Sup Titer (Normalized): 123.3 ± 5.8 Normalized
  WCW: 392 ± 20 g/kg
  WB Titer (Normalized): 75.0 ± 2.7 Normalized
[1]
  reduction of cell mass: 50%
  reduction of total polysaccharide content: 65%
  synthesis of protein and RNA: not adversely affected
